“Also recorded” adds a separate entry of the source.
Key:
[1] = In vivo stability (blood, urine, liver) after injection; set-up: species or system balb/c mice
Description: For metabolite analysis, three balb/c mice were injected with a bolus of 32 MBq of ^64Cu-DOTHA2-PSMA in 0.3 mL saline by tail vein (real IA: 26.4–39.0 MBq). Blood was collected at 1 h p.i. (0.01–0.1 mL) in heparin-coated tubes and then centrifuged at 10,000 rpm for 10 min. Subsequently, the pellet and supernatant were separated, and the relative activity was determined. Radio-TLC was performed to assess the stability of the radiolabeled compound in the blood and in plasma. Two balb/c mice were injected with 45 MBq (real IA: 44.7–45.5 MBq). Urine was collected at 1 h p.i. and analyzed by UPLC. Two balb/c mice were injected with 59 MBq and then euthanized and dissected at 2 h p.i. to harvest the liver (real IA: 58.9–59.3 MBq). The livers were promptly washed and put on ice. They were homogenized with an ice-cold piston with 1 mL of water, extracted, centrifuged (14,000 rpm; 3 min), and mixed with 1 mL of acetonitrile before 4 further cycles of centrifugation and the collection of supernatants. All the pellets were mixed with 1 mL of 10% TFA and centrifuged, and the final supernatant was analyzed by Radio-TLC. The activity was measured in all the supernatants.

LNCaP cells [2] = assay: Cellular uptake and internalization assays; assay type: cell-based, human; details: for cellular uptake: n = 9
Description: Here, 12-well polylysine-coated Cellbind plates were seeded with 150 × 10^3 LNCaP cells with 1.75 mL of cell media. At 70–100% confluence (3 days of growth), the cell medium was changed and 37 kBq of ^64Cu-DOTHA2-PSMA in 1 mL of cell medium was added to each well of group 1 and 160 kBq to each of group 2.
Uptake and internalization assay cells were incubated for 15, 30, 45, 60 min, 2 h, 3 h, and 4 h in group 1 or 4 h, 8 h, 12 h, 24 h, 36 h, and 48 h in group 2 (3 wells per time point in all groups). Repetition of the 4 h time point was used to ensure reproducibility. After incubation, the medium was removed, and cells were washed with 1 mL of cold PBS. For the uptake assays, cells were directly treated with 1 mL of trypsin to be collected and their activity was assayed (HIDEX AMG Gamma Counter 425-601). For internalization assays, cells were incubated with 1 mL of acidic glycine (50 mM, pH = 2,8) for 5 min to remove membrane-bound ^64Cu-DOTHA2-PSMA, washed with 3 mL of cold PBS, and collected using 1 mL of trypsin to be measured in the gamma-counter. Uptake and internalization results were expressed as the percentage of activity injected in the well (IA) in functions of time, normalized to 10^6 cells.
All the assays were performed at least 3 times, each with different ^64Cu-DOTHA2-PSMA production and cell passage. Cells were counted in 3 wells for each protocol (uptake, internalization, and efflux) on day 1 and day 3 of each experiment and an average for cells numbers at day 2.

[3] = Balb/c mice biodistribution; assay type: in vivo
Description: ^64Cu-DOTHA2-PSMA biodistribution was assessed in balb/c mice (n = 30) by harvesting blood and organs at 1 h, 2 h, 4 h, 24 h, and 48 h p.i. to measure tissue radioactivity and weight. Results were reported as the %IA/g of tissue and compared with the radiotracer used for clinical imaging in our facility, ^68Ga-PSMA-617.
Balb/c mice (n = 30) were injected with a bolus of ^64Cu-DOTHA2-PSMA by the tail vein (in 0.3 mL of saline: 3 MBq for 1 h, 2 h, and 4 h p.i., 7.5 MBq for 24 h p.i. and 21 MBq for 48 h p.i.). Injected activity had to be increased for later time points to ensure reliable detection and reliability in organs with a low uptake, e.g., the brain. At all timepoints, blood was collected using a heparin-coated syringe by femoral vein puncture and mice were then euthanized and dissected. Harvested tissues were rinsed, blotted dry, and then weighted and counted in gamma counter. The results are reported as the %IA per gram of tissue. The biodistribution results were compared with the ^68Ga-PSMA-617 results obtained by our team at 1 h and 2 h p.i.

LNCaP cells [4] = assay: Cellular efflux assay; assay type: cell-based, human; details: 1h incubation, efflux time 3 h
[5] = in mice, 1 h p.i., after 10% TFA

CN([O-])C(=O)CN1CCN(CC(=O)NCC2CCC(C(=O)NC(Cc3ccc4ccccc4c3)C(=O)NCCCCC(NC(=O)NC(CCC(=O)O)C(=O)O)C(=O)O)CC2)CCN(CC(=O)N(C)[O-])CCN(CC(=O)N(C)O)CC1.[64Cu+2] (stereo not drawn) [^64Cu-DOTHA2-PSMA]
64Cu metabolite observed in the liver ([1]; balb/c mice, 2 h p.i., radio-TLC): 25%
tracer form found in urine ([1]; balb/c mice, urine 1 h p.i., UPLC): intact ^64Cu tracer was found in urine; also recorded: no metabolite was observed in urine
64Cu and 64Cu-DOTHA2-PSMA Bound to Plasma Proteins ([1]; in mice, 1 h p.i.): 48%
64Cu dissociation in combined supernatant and plasma proteins ([1]; in mice, 1 h p.i.): 4.58%
64Cu released from Proteins [1, 5]: 1.98%
64Cu-DOTHA2-PSMA Released from Proteins [1, 5]: 31%
64Cu in the Supernatant ([1]; in mice, blood 1 h p.i., % of total plasma signal): 2.60%
free 64Cu in blood (peak in plasma supernatant, radio-TLC) ([1]; mice, 1 h p.i.): 5%
free 64Cu in the liver ([1]; mice, 2 h p.i., radio-TLC): no free ^64Cu was observed; also recorded: free ^64Cu was not seen in liver
cellular uptake (LNCaP cells [2]; 30 min): 22.0 ± 8.8 % IA/10^6 cells
internalization (LNCaP cells [2]; 2 h): 12.2 ± 6.7 % IA/10^6 cells
internalization (LNCaP cells [2]; 48 h): 34.1 ± 4.9 % IA/10^6 cells
cellular uptake (LNCaP cells [2]; 48 h): 34.5 ± 13.6 % IA/10^6 cells
kidney uptake difference to 68Ga-PSMA-617 (lower) ([3]; 2 h p.i.): 23.3%
liver uptake ([3]; 2 h p.i.): 29.9 ± 5.0 % IA/g
liver uptake (peak) ([3]; 4 h p.i.): 30.2 ± 4.2 % IA/g
uptake in the kidneys (highest over time points) ([3]; up to 48 h p.i.): at most 15.8 ± 7.0 % IA/g
Retained activity normalized to time 0 (LNCaP cells [4]): 76.53%

From PMC9412875, “^64Cu-DOTHA2-PSMA, a Novel PSMA PET Radiotracer for Prostate Cancer with a Long Imaging Time Window” (Pharmaceuticals, 2022)
